Experimental data as given in article PMC8485799, “Synthesis and Antiprotozoal Profile of 3,4,5‐Trisubstituted Isoxazoles” (ChemistryOpen, 2021).

Tests used:
[1] = system: promastigote forms of Leishmania amazonensis (WHOM/BR/75/JOSEFA strain); test: Antiproliferative assay (XTT), promastigote forms, 72 h; type: cell-based; details: for IC50: Leishmania amazonensis, promastigote form, 72 h, XTT, read-out: L. amazonensis IC50; for SIL-F, selectivity index (Fibroblast CC50/L. amazonensis IC50): fibroblast vs promastigote; for SIL-M, selectivity index (Macrophages CC50/L. amazonensis IC50): macrophages vs promastigote
Experimental: (§1) The antiproliferative activity was determined in promastigote forms of Leishmania amazonensis (WHOM/BR/75/JOSEFA strain) and epimastigote forms of Trypanosoma cruzi (Y strain). The promastigote forms of L. amazonensis were cultured in Warren medium (brain heart infusion, hemin, and folic acid; pH 7.4) supplemented with 10 % fetal bovine serum (FBS) at 25 °C. The epimastigote forms of T.cruzi were cultured in LIT medium (liver infusion tryptose; hemin, and folic acid; pH 7.4) supplemented with 10 % FBS at 28 °C. Cytotoxicity in mammalian cells was determined in fibroblast line (L929) and macrophages (J774 A1). Fibroblasts were cultured in DMEM medium (pH 7.2) supplemented with 10 % FBS at 37 °C in a 5 % CO2 atmosphere. Macrophages were cultured in RPMI‐1640 (pH 7.2) medium supplemented with 10 % FBS at 37 °C in a 5 % CO2 atmosphere.
(§2) Stock solutions of the compounds were prepared in DMSO and then diluted in the respective medium.
(§3) Promastigote forms (1×10^6 parasites.mL^−1) were cultured in 96‐well plates in the presence and absence of different concentrations of compounds diluted in Warren medium supplemented with 10 % FBS and incubated for 72 h. The epimastigote forms (1×10^6 parasites.mL^−1) were cultured in 96‐well plates in the presence and absence of different concentrations of compounds diluted in LIT medium supplemented with 10 % FBS and incubated for 96 h. After treatment, the parasites were incubated with a solution of 2,3‐bis(2‐methoxy‐4‐nitro‐5‐sulfophenyl)‐2H‐tetrazolium‐5‐carboxanilide (XTT; 0.5 mg.mL^−1) and phenazine methanesulfonate activator (PMS; 0.06 mg.mL^−1) in PBS for 4 h. Then, the absorbance was read in a microplate reader (Bio Tek‐Power Wave XS) at 450 nm.[20] The percentage of viable parasites was calculated in relation to the control in order to determine the concentration that inhibits 50 % of the protozoa (IC50). The control groups of each experiment received the same experimental conditions as the treated groups (cell concentration used, temperature, and incubation time).

[2] = system: epimastigote forms of Trypanosoma cruzi (Y strain); test: Antiproliferative assay (XTT), epimastigote forms, 96 h; type: cell-based; details: for IC50: Trypanosoma cruzi, epimastigote form, 96 h, XTT, read-out: T. cruzi IC50; for SIT-F, selectivity index (Fibroblast CC50/T. cruzi IC50): fibroblast vs epimastigote; for SIT-M, selectivity index (Macrophages CC50/T. cruzi IC50): macrophages vs epimastigote
Experimental: as §1, §2, §3

[3] = Cytotoxicity assay in mammalian cells (MTT), fibroblasts, 72 h; type: cell-based; details: mouse, L929 fibroblast cells, pH 7.2; 50 % inhibition of fibroblast growth, 72 h, MTT
Experimental: as §1, §2
(§4) Fibroblast cell (2.5×10^5 cells.mL^−1) suspensions were prepared in DMEM medium supplemented with 10 % FBS and added to 96‐well plates. Then, the plates were incubated at 37 °C in a CO2 atmosphere for 24 h to obtain confluent cell growth. After incubation, cells were treated with different concentrations of compounds diluted in DMEM for 72 h or left untreated. Macrophage (5×10^5 cells.mL^−1) suspensions were prepared in RPMI‐1640 medium supplemented with 10 % FBS and added to 96‐well plates. Then, the plates were incubated at 37 °C in a CO2 atmosphere for 24 h to obtain confluent cell growth. After incubation, cells were treated with different concentrations of compounds diluted in RPMI‐1640 for 48 h or left untreated. After treatment, the medium was removed, and cells were incubated with MTT (2 mg.mL^−1) for 4 h. Then, DMSO was added for solubilization of the formazan and analyzed with a reading microplate reader (BIO‐TEK PowerWave XS spectrophotometer) at […].[20] The percentage of viable cells was calculated in relation to the untreated control group to determine the cytotoxic concentration in 50 % of the cells (CC50). The control groups of each experiment received the same experimental conditions as the treated groups (cell concentration used, temperature, CO2, and incubation time).

[4] = Cytotoxicity assay in mammalian cells (MTT), macrophages, 48 h; type: cell-based; details: mouse, J774 A1 macrophages, pH 7.2; 50 % inhibition of macrophages growth, 48 h, MTT
Experimental: as §1, §2, §4

Row | IC50 [2] [µM] | melting point [°C] | SMILES | IC50 [1] [µM] | SIL-F, selectivity index (Fibroblast CC50/L. amazonensis IC50) [1] | SIL-M, selectivity index (Macrophages CC50/L. amazonensis IC50) [1] | SIT-F, selectivity index (Fibroblast CC50/T. cruzi IC50) [2] | SIT-M, selectivity index (Macrophages CC50/T. cruzi IC50) [2] | CC50 at 72 h [3] [µM] | CC50 at 48 h [4] [µM]
1 | 39.8 ± 3.6 | 189 to 190.4 | NNC(=O)c1noc(-c2ccc([N+](=O)[O-])cc2)c1CNc1ccccc1 [3 aa, 3‐Carbohydrazide‐4‐(phenyl)aminomethyl‐5‐(4‐nitrophenyl)isoxazole] | 42.1 ± 1.3 | 4.71 | 3.39 | 4.98 | 3.59 | 198 ± 9.5 | 142.8 ± 0.8
2 | 27 ± 1.1 | 188.4 to 190.1 | O=C(N/N=C/c1ccccc1)c1noc(-c2ccccc2)c1CNc1ccc(Cl)cc1 [4 bb] | 27.8 ± 0.7 | 11.57 | 10.98 | 11.91 | 11.30 | 322 ± 9.7 | 305 ± 7.4
3 | 149 ± 10.3 | 157.7 to 159.6 | O=C(N/N=C/c1ccccc1)c1noc(-c2ccc(F)cc2)c1CNc1ccccc1 [4 ca] | 135 ± 11.4 | 6.04 | 5.83 | 5.47 | 5.29 | 814 ± 13.5 | 784 ± 10.6
4 | 82.9 ± 3.4 | 144.2 to 146.8 | COc1ccc(NCc2c(C(=O)NN)noc2-c2ccc([N+](=O)[O-])cc2)cc1 [3 ac] | 76.7 ± 0.6 | 6.51 | 5.25 | 6.02 | 4.86 | 499 ± 2.7 | 403 ± 11.5
5 | 12.1 ± 0.9 | 174.1 to 176.8 | NNC(=O)c1noc(-c2ccc([N+](=O)[O-])cc2)c1CNc1ccc(Cl)cc1 [3 ab] | 15.7 ± 0.4 | 6.26 | 5.84 | 8.12 | 7.58 | 98.3 ± 4.1 | 91.7 ± 3.8

More lines, now with the values behind:

Row | SMILES | IC50 [2] [µM] | melting point [°C] | IC50 [1] [µM] | SIL-F, selectivity index (Fibroblast CC50/L. amazonensis IC50) [1] | SIL-M, selectivity index (Macrophages CC50/L. amazonensis IC50) [1] | SIT-F, selectivity index (Fibroblast CC50/T. cruzi IC50) [2] | SIT-M, selectivity index (Macrophages CC50/T. cruzi IC50) [2] | CC50 at 72 h [3] [µM] | CC50 at 48 h [4] [µM]
6 | O=C(N/N=C/c1ccccn1)c1noc(-c2ccccc2)c1CNc1ccc(Cl)cc1 [5 bb] | 26.9 ± 0.9 | 209.3 to 211.7 | 27.8 ± 4.1 | 12.38 | 11.01 | 12.57 | 11.18 | 338 ± 8.6 | 301 ± 5.9
7 | NNC(=O)c1noc(-c2ccc(F)cc2)c1CNc1ccccc1 [3 ca] | 22.8 ± 1.7 | 174 to 175 | 20.3 ± 0.9 | – | 8.57 | 10.25 | 7.63 | 198 ± 5 | 174 ± 8.1
8 | NNC(=O)c1noc(-c2ccc(Cl)cc2)c1CNc1ccccc1 [3 da] | 27.9 ± 2.3 | 202.8 to 205.6 | 23.1 ± 1.5 | 13.21 | 11.12 | 10.93 | 9.20 | 305 ± 11.4 | 257 ± 6.8
9 | O=C(N/N=C/c1ccc(-c2cccs2)s1)c1noc(-c2ccc(Cl)cc2)c1CNc1ccccc1 [6 da] | 27.2 ± 2.5 | 208.4 to 209.9 | 28 ± 1.3 | 12.39 | 11.14 | 12.76 | 11.47 | 347 ± 8.4 | 312 ± 4.3
